Test results from patent publication US7514254B2, “Plant-derived alkaline alpha-galactosidase” (The State of Israel, Ministry of Agriculture & Rural …, priority 1998, dated 2009).
Entries after “also recorded” stand apart in the source; their conditions may differ.

Legend:
[1] = system: melon (Cucumis melo) fruit acid form alpha-galactosidase; experiment: Inhibition of acid alpha-galactosidase by alternative substrate (galactose release); type: biochemical, muskmelon (Cucumis melo L. cv C-8); details: 80 mM stachyose added to 10 mM raffinose
Experimental: For routine analysis and monitoring the activity in the purification steps, alpha-galactosidase was assayed as described by Smart and Pharr (“Characterization of alpha-galactosidase from cucumber leaves”, Plant Physiology, 66:731-734, 1980), using p-nitrophenyl alpha-galactoside (pNPG) as substrate. […] The reaction was terminated after 10 min by adding 1 ml of 5% (w/v) Na2CO3 and activity expressed as nmol nitrophenol per min as measured at 410 nm. […] The substrate specificity of the alpha-galactosidases was tested with pNPG, stachyose, raffinose, melibiose or guar gum (Sigma).

[2] = system: melon (Cucumis melo) fruit acid form alpha-galactosidase; experiment: Substrate kinetics (Lineweaver-Burk) of acid alpha-galactosidase; type: biochemical, muskmelon (Cucumis melo L. cv C-8)
Experimental: For routine analysis and monitoring the activity in the purification steps, alpha-galactosidase was assayed as described by Smart and Pharr (“Characterization of alpha-galactosidase from cucumber leaves”, Plant Physiology, 66:731-734, 1980), using p-nitrophenyl alpha-galactoside (pNPG) as substrate. […] The reaction was terminated after 10 min by adding 1 ml of 5% (w/v) Na2CO3 and activity expressed as nmol nitrophenol per min as measured at 410 nm. […] The assay was started by adding 50 μl enzyme preparation at 35 C and terminated after 10 to 20 min by 2 min boiling. […] For the partial purification of the acid form of alpha-galactosidase the fractions active at pH 5.5 were pooled and concentrated by reverse dialysis against solid sucrose. […] The active fractions were then desalted by dialysis against buffer A for 12 hours with two changes of the buffer. This enzyme fraction was used for the characterization of the acidic form of alpha-galactosidase. […] The substrate specificity of the alpha-galactosidases was tested with pNPG, stachyose, raffinose, melibiose or guar gum (Sigma).

[3] = biological target: T1, melon (Cucumis melo) fruit alkaline alpha-galactosidase Form I (Cucumis melo, UniProt Q84NI7); experiment: Inhibition of alkaline alpha-galactosidase Form I by alternative substrate (galactose release); type: biochemical, muskmelon (Cucumis melo L. cv C-8); set-up: native 84 kDa, denatured 79 kDa; assayed at pH 7.5
T1 sequence (Q84NI7 1-754): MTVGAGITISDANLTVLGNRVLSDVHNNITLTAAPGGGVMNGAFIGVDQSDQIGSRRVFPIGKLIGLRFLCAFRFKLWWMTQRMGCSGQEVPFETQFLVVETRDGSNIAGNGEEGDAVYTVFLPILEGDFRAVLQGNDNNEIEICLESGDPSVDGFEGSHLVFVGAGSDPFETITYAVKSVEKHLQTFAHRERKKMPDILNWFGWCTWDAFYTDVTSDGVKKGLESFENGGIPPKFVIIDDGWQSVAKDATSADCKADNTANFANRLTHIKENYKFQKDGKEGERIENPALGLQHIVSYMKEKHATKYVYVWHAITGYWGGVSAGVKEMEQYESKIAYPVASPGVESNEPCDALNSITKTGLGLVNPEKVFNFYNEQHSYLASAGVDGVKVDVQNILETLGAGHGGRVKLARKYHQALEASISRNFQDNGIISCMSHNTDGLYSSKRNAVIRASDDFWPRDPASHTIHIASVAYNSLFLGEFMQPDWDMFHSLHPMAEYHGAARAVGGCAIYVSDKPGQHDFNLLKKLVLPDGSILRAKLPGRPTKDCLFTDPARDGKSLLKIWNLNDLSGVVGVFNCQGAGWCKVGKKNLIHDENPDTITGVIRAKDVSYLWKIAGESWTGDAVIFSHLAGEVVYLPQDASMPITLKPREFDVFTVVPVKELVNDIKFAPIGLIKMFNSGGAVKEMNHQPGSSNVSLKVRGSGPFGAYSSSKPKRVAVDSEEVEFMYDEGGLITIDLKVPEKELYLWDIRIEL
Experimental: (§1) For routine analysis and monitoring the activity in the purification steps, alpha-galactosidase was assayed as described by Smart and Pharr (“Characterization of alpha-galactosidase from cucumber leaves”, Plant Physiology, 66:731-734, 1980), using p-nitrophenyl alpha-galactoside (pNPG) as substrate. Reaction was initiated by adding 50 μl enzyme aliquot to either 200 μl 100 mM pH 5.5 McIlvaine buffer or 100 mM pH 7.5 HEPES buffer, containing 5 mM pNPG at 35 C. The reaction was terminated after 10 min by adding 1 ml of 5% (w/v) Na2CO3 and activity expressed as nmol nitrophenol per min as measured at 410 nm. […] The assay was started by adding 50 μl enzyme preparation at 35 C and terminated after 10 to 20 min by 2 min boiling.

[4] = biological target: T1, melon (Cucumis melo) fruit alkaline alpha-galactosidase Form I; experiment: Substrate kinetics (Lineweaver-Burk) of alkaline alpha-galactosidase Form I
Experimental: as §1
The fractions from the DEAE-Sepharose chromatography which were active at pH 7.5 were pooled and dialyzed against buffer A for 12 h prior to loading onto an HPLC ion exchange chromatography column (Mono-Q HR 5/5, Pharmacia, Uppsala, Sweden), previously equilibrated with buffer A. Bound proteins were eluted with a linear gradient of 0.1 to 0.45 M NaCl and the active fractions were detected using pNPG as substrate at pH 7.5 as described above. […] For the further purification of Form II the active fractions of the peak II were chromatographed on hydrophobic interaction chromatography. The fractions were pooled, brought to 1 M (NH4)2SO4 and loaded on to a hydrophobic interaction column (phenyl-Sepharose CL-4B, 0.5×12 cm, Pharmacia, Uppsala, Sweden) previously equilibrated with buffer A containing 1 M (NH4)2SO4. The protein was eluted with a reverse stepwise gradient from 1 to 0 M (NH4)2SO4 with 50 mM intervals in buffer A. Fractions containing the activity peak were collected and dialyzed for 12 h against buffer A and the dialysate was concentrated by reverse dialysis against solid sucrose. The enzyme, partially purified by hydrophobic interaction chromatography, was used for the characterization of Form II. The active fractions from the hydrophobic interaction column were further purified. Active fractions were separated electrophoretically using a Mini Prep Cell (Bio-Rad Laboratories, Hercules, Calif.) for discontinuous native-PAGE with 7% polyacrylamide, according to manufacturer's instructions. Fractions (0.25 ml/fraction) were assayed at pH 7.5 with pNPG as substrate for the activity. The active fractions were pooled, concentrated by Vivaspin Concentrator (Vivascience LTD, Lincoln, England), and run in a 8% SDS-PAGE. Proteins in the SDS-PAGE were identified using Coomassie Blue staining.
Therefore, the active fractions from the Mono-Q column were used for the characterization of Form I. In addition, the Form I enzyme was further purified, as described in the following section.

- inhibition by excess stachyose (free galactose release) [1]: 45%
- Vmax/Km ratio [2]: 0.02
- Km ([2]; Lineweaver-Burk): 10.5 mM
- Vmax ([2]; Lineweaver-Burk): 0.23 μmol mg^−1 protein min^−1
- Vmax/Km ratio [4]: 0.06
- Vmax ([4]; Lineweaver-Burk): 0.24 μmol mg^−1 protein min^−1
Structure (SMILES): OC[C@H]1O[C@H](OC[C@H]2O[C@H](OC[C@H]3O[C@H](O[C@]4(CO)O[C@H](CO)[C@@H](O)[C@@H]4O)[C@H](O)[C@@H](O)[C@@H]3O)[C@H](O)[C@@H](O)[C@H]2O)[C@H](O)[C@@H](O)[C@H]1O [Stachyose, O-alpha-D-galactopyranosyl-(1-6)-O-alpha-D-galactopyranosyl-(1-6)-O-alpha-D-glucopyranosyl-(1-2)-beta-D-fructofuranoside]
- inhibition by excess stachyose (free galactose release, in words) [3]: negligible; also recorded: does not decrease
